Data: patent US6287792A, “Drug delivery of antisense oligonucleotides and peptides to tissues in vivo and to cells using avidin-biotin technology” (The Regents of the University of California, priority 1991, dated 2001)

Tested on: isolated bovine brain capillaries (uptake of avidin-biotin complex)
Experiment: uptake of the avidin-biotin complex by isolated bovine brain capillaries in vitro
Format: cell-based
Conditions: 50 mM, 23° C., thirty minutes
Procedure: The in vitro studies were performed with isolated bovine brain capillaries used as an in vitro model of blood brain barrier (BBB) transport (16). […] The modest uptake of radioactivity in the presence of buffer alone represents uptake of [P^32 ] nucleotide or phosphate ion generated by capillary nuclease or phosphatase degradation of the antisense oligonucleotide. All incubations were performed at 23° C. for thirty minutes with brain capillary (about 100 μg protein per flask).

CO[C@H]1O[C@H](CO)[C@@H](O)[C@H](O)[C@@H]1O [α-methylmannoside]
inhibition of the uptake of the avidin-biotin complex by brain capillaries: no significant inhibition
